Species on record: Rattus norvegicus
Test: DrugMatrix - Regimen: Daily Repeat
Format: toxicity, organism-based, Sprague-Dawley
Design: regimen Daily Repeat, gender Male, age 6-8 weeks
Settings: in vivo, po, route oral GAVAGE, vehicle 100 % WATER; for ABSOLUTE BASOPHIL / ABSOLUTE EOSINOPHIL / ABSOLUTE LYMPHOCYTE / ABSOLUTE MONOCYTE / ABSOLUTE SEGMENTED NEUTROPHIL / BASOPHIL / EOSINOPHIL / ERYTHROCYTE COUNT / HEMATOCRIT / HEMOGLOBIN / LEUKOCYTE COUNT / LYMPHOCYTE / MEAN CORPUSCULAR HEMOGLOBIN / MEAN CORPUSCULAR HEMOGLOBIN CONCENTRATION / MEAN CORPUSCULAR VOLUME / MONOCYTE / NEUTROPHIL / NUCLEATED RED BLOOD CELLS / PLATELET COUNT: tissue Blood; for ALANINE AMINOTRANSFERASE / ALBUMIN / ALKALINE PHOSPHATASE / ASPARTATE AMINOTRANSFERASE / BLOOD UREA NITROGEN / CARBON DIOXIDE / CHLORIDE / CHOLESTEROL / CREATINE PHOSPHOKINASE / CREATININE / GLUCOSE / LACTATE DEHYDROGENASE / LIPASE / PHOSPHORUS / POTASSIUM / SODIUM / TOTAL BILIRUBIN / TOTAL PROTEIN / URIC ACID: tissue Plasma
[1] = 0 mg/kg, 72 h, dose level Control, time 3 day
[2] = 0 mg/kg, 120 h, dose level Control, time 5 day
[3] = 160 mg/kg, 72 h, dose level Low, time 3 day

Compound: N[C@@H](Cc1ccc(O)c(O)c1)C(=O)O [LEVODOPA]
- ABSOLUTE BASOPHIL [1]: 0 CELLS/uL
- ABSOLUTE EOSINOPHIL [1]: 86.33 CELLS/uL
- ABSOLUTE LYMPHOCYTE [1]: 12090.17 CELLS/uL
- ABSOLUTE MONOCYTE [1]: 166.67 CELLS/uL
- ABSOLUTE SEGMENTED NEUTROPHIL [1]: 1090.17 CELLS/uL
- BASOPHIL [1]: 0%
- EOSINOPHIL [1]: 0.67%
- ERYTHROCYTE COUNT [1]: 5.57 x10E6/uL
- HEMATOCRIT [1]: 35.33%
- HEMOGLOBIN [1]: 13.83 G/DL
- LEUKOCYTE COUNT [1]: 13.43 x10E3/uL
- LYMPHOCYTE [1]: 89.83%
- MEAN CORPUSCULAR HEMOGLOBIN [1]: 24.88 pg
- MEAN CORPUSCULAR HEMOGLOBIN CONCENTRATION [1]: 39.15 G/DL
- MEAN CORPUSCULAR VOLUME [1]: 63.52 fL
- MONOCYTE [1]: 1.17%
- NEUTROPHIL [1]: 8.33%
- NUCLEATED RED BLOOD CELLS [1]: 0 /100WBC
- PLATELET COUNT [1]: 1181.33 x10E3/uL
- ALANINE AMINOTRANSFERASE [1]: 48.33 u/L
- ALBUMIN [1]: 4.1 G/DL
- ALKALINE PHOSPHATASE [1]: 395 u/L
- ASPARTATE AMINOTRANSFERASE [1]: 81.83 u/L
- BLOOD UREA NITROGEN [1]: 15.83 mg/dL
- CARBON DIOXIDE [1]: 24.17 mmol/L
- CHLORIDE [1]: 103.83 MEQ/L
- CHOLESTEROL [1]: 63.67 mg/dL
- CREATINE PHOSPHOKINASE [1]: 372.83 u/L
- CREATININE [1]: 0.18 mg/dL
- GLUCOSE [1]: 173.83 mg/dL
- LACTATE DEHYDROGENASE [1]: 188.33 u/L
- LIPASE [1]: 9.5 u/L
- PHOSPHORUS [1]: 11.95 mg/dL
- POTASSIUM [1]: 5.99 MEQ/L
- SODIUM [1]: 144.43 MEQ/L
- TOTAL BILIRUBIN [1]: 0.15 mg/dL
- TOTAL PROTEIN [1]: 5.95 G/DL
- URIC ACID [1]: 1.82 mg/dL
- ABSOLUTE BASOPHIL [2]: 0 CELLS/uL
- ABSOLUTE EOSINOPHIL [2]: 26.67 CELLS/uL
- ABSOLUTE LYMPHOCYTE [2]: 7583.83 CELLS/uL
- ABSOLUTE MONOCYTE [2]: 131.33 CELLS/uL
- ABSOLUTE SEGMENTED NEUTROPHIL [2]: 674.83 CELLS/uL
- BASOPHIL [2]: 0%
- EOSINOPHIL [2]: 0.33%
- ERYTHROCYTE COUNT [2]: 5.78 x10E6/uL
- HEMATOCRIT [2]: 36.48%
- HEMOGLOBIN [2]: 14.03 G/DL
- LEUKOCYTE COUNT [2]: 8.42 x10E3/uL
- LYMPHOCYTE [2]: 89.83%
- MEAN CORPUSCULAR HEMOGLOBIN [2]: 24.3 pg
- MEAN CORPUSCULAR HEMOGLOBIN CONCENTRATION [2]: 38.52 G/DL
- MEAN CORPUSCULAR VOLUME [2]: 63.15 fL
- MONOCYTE [2]: 1.67%
- NEUTROPHIL [2]: 8.17%
- NUCLEATED RED BLOOD CELLS [2]: 0 /100WBC
- PLATELET COUNT [2]: 1186.67 x10E3/uL
- ALANINE AMINOTRANSFERASE [2]: 50.17 u/L
- ALBUMIN [2]: 4.07 G/DL
- ALKALINE PHOSPHATASE [2]: 367.5 u/L
- ASPARTATE AMINOTRANSFERASE [2]: 81.67 u/L
- BLOOD UREA NITROGEN [2]: 16.17 mg/dL
- CARBON DIOXIDE [2]: 32.33 mmol/L
- CHLORIDE [2]: 101.5 MEQ/L
- CHOLESTEROL [2]: 65.33 mg/dL
- CREATINE PHOSPHOKINASE [2]: 255.33 u/L
- CREATININE [2]: 0.17 mg/dL
- GLUCOSE [2]: 139.33 mg/dL
- LACTATE DEHYDROGENASE [2]: 95 u/L
- LIPASE [2]: 10.5 u/L
- PHOSPHORUS [2]: 10.38 mg/dL
- POTASSIUM [2]: 6.11 MEQ/L
- SODIUM [2]: 145.55 MEQ/L
- TOTAL BILIRUBIN [2]: 0.17 mg/dL
- TOTAL PROTEIN [2]: 5.98 G/DL
- URIC ACID [2]: 0.93 mg/dL
- ABSOLUTE BASOPHIL [3]: 0 CELLS/uL
- ABSOLUTE EOSINOPHIL [3]: 48 CELLS/uL
- ABSOLUTE LYMPHOCYTE [3]: 13173.67 CELLS/uL
- ABSOLUTE MONOCYTE [3]: 48 CELLS/uL
- ABSOLUTE SEGMENTED NEUTROPHIL [3]: 2130.33 CELLS/uL
- BASOPHIL [3]: 0%
- EOSINOPHIL [3]: 0.33%
- ERYTHROCYTE COUNT [3]: 5.35 x10E6/uL
- HEMATOCRIT [3]: 34.57%
- HEMOGLOBIN [3]: 13.5 G/DL
- LEUKOCYTE COUNT [3]: 15.4 x10E3/uL
- LYMPHOCYTE [3]: 85.67%
- MEAN CORPUSCULAR HEMOGLOBIN [3]: 25.23 pg
- MEAN CORPUSCULAR HEMOGLOBIN CONCENTRATION [3]: 39.07 G/DL
- MEAN CORPUSCULAR VOLUME [3]: 64.63 fL
- MONOCYTE [3]: 0.33%
- NEUTROPHIL [3]: 13.67%
- NUCLEATED RED BLOOD CELLS [3]: 0 /100WBC
- PLATELET COUNT [3]: 1267 x10E3/uL
- ALANINE AMINOTRANSFERASE [3]: 43.67 u/L
- ALBUMIN [3]: 4 G/DL
- ALKALINE PHOSPHATASE [3]: 349.67 u/L
- ASPARTATE AMINOTRANSFERASE [3]: 93.67 u/L
- BLOOD UREA NITROGEN [3]: 15.67 mg/dL
- CARBON DIOXIDE [3]: 22 mmol/L
- CHLORIDE [3]: 103.33 MEQ/L
- CHOLESTEROL [3]: 61 mg/dL
- CREATINE PHOSPHOKINASE [3]: 665.33 u/L
- CREATININE [3]: 0.14 mg/dL
- GLUCOSE [3]: 158.33 mg/dL
- LACTATE DEHYDROGENASE [3]: 401 u/L
- LIPASE [3]: 8.67 u/L
- PHOSPHORUS [3]: 12.63 mg/dL
- POTASSIUM [3]: 5.77 MEQ/L
- SODIUM [3]: 144.43 MEQ/L
- TOTAL BILIRUBIN [3]: 0.2 mg/dL
- TOTAL PROTEIN [3]: 5.73 G/DL
- URIC ACID [3]: 1.87 mg/dL
